Test results: patent publication US8003691B2, “Antiviral and comma antibacterial pharmaceutical compositions of cantharidic anhydride and method of preparation thereof” (priority 2001, dated 2011)

Columns and labels:
[1] = system: tubercule bacillus; details: reported in literature; cited from earlier work
[2] = system: tubercule bacillus; type: cell-based
[3] = Solubility of cantharidic anhydride in water, fat and essential oil; type: physicochemical
Method: In the pharmaceutical composition of the present invention, cantharidic anhydride is dissolved in essential oils or single constituent of essential oils to form cantharidic anhydride-essential oil preparation. The cantharidic anhydride has higher solubility in essential oil. […] That is to say, concentration of cantharidic anhydride in essential oil can be 14 times larger than that in fat and more than 200 time larger than that in water.

[4] = system: staphylococcus; type: cell-based
[5] = human, in vivo
[6] = system: virus; experiment: Minimum concentration for virus deactivation; type: cell-based

In the case of `[H]/N=C(/N)N[C@H]1[C@H](O)[C@@H](O)[C@H](O[C@@H]2O[C@@H](C)[C@](O)(C=O)[C@H]2O[C@@H]2O[C@@H](CO)[C@H](O)[C@@H](O)[C@@H]2NC)[C@@H](N/C(N)=N\[H])[C@@H]1O` [streptomycin], the “minimum concentration for tubercule bacillus deactivation” value [1] is listed as 10 ppm.

For `C[C@@]12C(=O)OC(=O)[C@]1(C)[C@H]1CC[C@@H]2O1` [cantharidic anhydride, Cantharidic anhydride], the “concentration in culture medium that can completely deactivate tubercule bacillus” value [2] was 0.01 ppm, the “concentration of cantharidic anhydride in essential oil relative to that in fat” value ([3]; essential oil vs fat) was 14 times and the “concentration of cantharidic anhydride in essential oil relative to that in water” value ([3]; essential oil vs water) was “more than 200 time”. The “solubility in essential oil” value ([3]; in essential oil) was at most 0.7%, the solubility in fat ([3]; in fat) was 0.05% and the “solubility of cantharidic anhydride in water” value ([3]; in water) was “approximately 0.003%”. For the same compound, the “concentration in culture medium that can completely deactivate staphylococcus” value [4] was 0.01 ppm, the “adverse reaction to liver and bone marrow” value [5] was “does not have adverse reaction to liver and bone marrow” and the “minimum concentration for virus deactivation” value [6] was 0.000132 ppm.
